This passage reports IC50 results from patent US10640506B2, “Cyclobutyl substituted pyrrolopyridine and pyrrolopyrimidines derivatives as JAK inhibitors” (Incyte Corporation, priority 2010, dated 2020).

Experiment [1] concerns the target human JAK1 (a.a. 837-1142) (Homo sapiens, UniProt P23458). The experiment can be described thus: In vitro JAK kinase assay (HTRF, phosphorylation of biotinylated peptide), JAK1. It counts as biochemical. The following applies: 1 mM ATP. In outline: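 His-tagged human JAK1 catalytic domain (a.a. 837-1142), baculovirus/insect-cell expressed, phosphorylates a biotinylated peptide for 1 h at room temperature. Reaction stopped with EDTA; product detected by HTRF (SA-APC, Eu-Py20, 40 min binding). IC50 reported as ranges.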
(In general: In TR-FRET formats the signal depends on donor and acceptor labels being close together.)

Experiment [2] deals with T1, JAK2 (a.a. 828-1132) (Homo sapiens, UniProt O60674).
T1 construct: JAK2 (a.a. 828-1132); His tag (N)
In words: In vitro JAK kinase assay (HTRF, phosphorylation of biotinylated peptide), JAK2. In kind it is biochemical. The following applies: 1 mM ATP. In outline:
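His-tagged catalytic domains of human JAK1 (a.a. 837-1142) and JAK2 (a.a. 828-1132), baculovirus-expressed, phosphorylate a biotinylated peptide for 1 hour at room temperature. Stopped with EDTA; detected by HTRF using SA-APC and Eu-Py20 antibody after 40 min binding; values binned as ranges.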

Like-named read-outs stand apart in the source and are kept apart here. Some results are limits rather than exact numbers.

Chain of human JAK1 (a.a. 837-1142) (P23458 849-1154): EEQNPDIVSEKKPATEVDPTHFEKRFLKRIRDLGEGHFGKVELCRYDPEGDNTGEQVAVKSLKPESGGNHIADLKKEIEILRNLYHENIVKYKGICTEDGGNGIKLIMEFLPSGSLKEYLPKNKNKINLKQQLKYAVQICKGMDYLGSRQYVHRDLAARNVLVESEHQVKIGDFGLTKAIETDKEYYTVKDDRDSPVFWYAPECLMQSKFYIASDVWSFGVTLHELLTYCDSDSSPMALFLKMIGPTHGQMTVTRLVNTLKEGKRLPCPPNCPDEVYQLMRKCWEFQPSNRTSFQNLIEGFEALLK
T1 sequence (O60674 828-1132): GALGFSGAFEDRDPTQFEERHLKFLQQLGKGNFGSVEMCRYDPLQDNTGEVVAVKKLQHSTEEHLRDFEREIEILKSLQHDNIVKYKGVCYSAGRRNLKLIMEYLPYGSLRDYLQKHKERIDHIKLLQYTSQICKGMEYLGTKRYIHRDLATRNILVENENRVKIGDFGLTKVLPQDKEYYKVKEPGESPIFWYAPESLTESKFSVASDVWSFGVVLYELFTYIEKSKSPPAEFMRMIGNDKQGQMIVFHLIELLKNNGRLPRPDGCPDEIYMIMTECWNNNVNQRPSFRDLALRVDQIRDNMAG

As for `CN(C)C(=O)N1CCN([C@H]2C[C@](CC#N)(n3cc(-c4ncnc5[nH]ccc45)cn3)C2)CC1` [Example 32, 4-{trans-3-(cyanomethyl)-3-[4-(7H-pyrrolo[2,3-d]pyrimidin-4-yl)-1H-pyrazol-1-yl]cyclobutyl}-N,N-dimethylpiperazine-1-carboxamide], the IC50 (commonly the point on the concentration scale where inhibition reaches its midpoint) was below 10 nM in experiment [1] (Table B, read-out: JAK1 IC50) and above 100 nM in experiment [2] (Table B, read-out: JAK2 IC50).

For `N#CC[C@]1(n2cc(-c3ncnc4[nH]ccc34)cn2)C[C@@H](N2CCN(C(=O)c3ccnc(C(F)(F)F)n3)CC2)C1` [Example 7a, [cis-1-[4-(7H-pyrrolo[2,3-d]pyrimidin-4-yl)-1H-pyrazol-1-yl]-3-(4-{[2-(trifluoromethyl)pyrimidin-4-yl]carbonyl}piperazin-1-yl)cyclobutyl]acetonitrile], the IC50 was 10 to 25 nM in experiment [1] (Table A, read-out: JAK1 IC50) and above 100 nM in experiment [2] (Table A, read-out: JAK2 IC50).

Consider `N#CC[C@]1(n2cc(-c3ncnc4[nH]ccc34)cn2)C[C@@H](N2CCN(C(=O)c3ccnc(C(F)(F)F)c3F)CC2)C1` [Example 6a, {cis-3-{4-[3-fluoro-2-(trifluoromethyl)isonicotinoyl]piperazin-1-yl}-1-[4-(7H-pyrrolo[2,3-d]pyrimidin-4-yl)-1H-pyrazol-1-yl]cyclobutyl}acetonitrile], for which the IC50 was 10 to 25 nM in experiment [1] (Table A, read-out: JAK1 IC50) and above 100 nM in experiment [2] (Table A, read-out: JAK2 IC50).

Take `N#CC[C@]1(n2cc(-c3ncnc4[nH]ccc34)cn2)C[C@@H](N2CCN(C(=O)c3cccc(C(F)F)n3)CC2)C1` [Example 21a, {cis-3-(4-{[6-(difluoromethyl)pyridin-2-yl]carbonyl}piperazin-1-yl)-1-[4-(7H-pyrrolo[2,3-d]pyrimidin-4-yl)-1H-pyrazol-1-yl]cyclobutyl}acetonitrile]: the IC50 in experiment [1] (Table A, read-out: JAK1 IC50) was below 10 nM; in experiment [2] (Table A, read-out: JAK2 IC50), 25 to 100 nM.

Turning to `N#CC[C@]1(n2cc(-c3ncnc4[nH]ccc34)cn2)C[C@H](N2CCN(C(=O)c3cc(CN)nc(C(F)(F)F)n3)CC2)C1` [Example 54, {trans-3-(4-{[6-(aminomethyl)-2-(trifluoromethyl)pyrimidin-4-yl]carbonyl}piperazin-1-yl)-1-[4-(7H-pyrrolo[2,3-d]pyrimidin-4-yl)-1H-pyrazol-1-yl]cyclobutyl}acetonitrile], the values for the IC50 in experiment [1] (Table F) and in experiment [2] (Table F) were below 10 nM and 25 to 100 nM, respectively.

On to `N#CC[C@]1(n2cc(-c3ncnc4[nH]ccc34)cn2)C[C@H](N2CCN(C(=O)N3CCC[C@H]3C(F)(F)F)CC2)C1` [Example 117, [trans-1-[4-(7H-pyrrolo[2,3-d]pyrimidin-4-yl)-1H-pyrazol-1-yl]-3-(4-{[(2S)-2-(trifluoromethyl)pyrrolidin-1-yl]carbonyl}piperazin-1-yl)cyclobutyl]acetonitrile], for which the IC50 in experiment [1] (Table F) is 25 to 100 nM; in experiment [2] (Table F) it was above 100 nM.

For `N#CC[C@]1(n2cc(-c3ncnc4[nH]ccc34)cn2)C[C@H](N2CCC(Oc3cc(CN4CCOC4=O)cc(C(F)(F)F)n3)CC2)C1` (single isomer, unassigned) [Example 165, peak 2, {trans-3-(4-{[4-[(2-oxo-1,3-oxazolidin-3-yl)methyl]-6-(trifluoromethyl)pyridin-2-yl]oxy}piperidin-1-yl)-1-[4-(7H-pyrrolo[2,3-d]pyrimidin-4-yl)-1H-pyrazol-1-yl]cyclobutyl}acetonitrile], the half-inhibitory concentration (IC50) in experiment [1] (Table F) is below 10 nM; in experiment [2] (Table F), 25 to 100 nM.

With `N#CC[C@]1(n2cc(-c3ncnc4[nH]ccc34)cn2)C[C@@H](N2CCN(C(=O)c3ccc(Cl)cc3)CC2)C1` [Example 28, {cis-3-{4-[4-chlorobenzoyl]piperazin-1-yl}-1-[4-(7H-pyrrolo[2,3-d]pyrimidin-4-yl)-1H-pyrazol-1-yl]cyclobutyl}acetonitrile], the IC50 in experiment [1] (Table A, read-out: JAK1 IC50) is below 10 nM; in experiment [2] (Table A, read-out: JAK2 IC50), 10 to 25 nM.

As to `N#CC[C@]1(n2cc(-c3ncnc4[nH]ccc34)cn2)C[C@@H](N2CCN(C(=O)c3cccc(C(F)(F)F)n3)CC2)C1` [Example 20a, {cis-1-[4-(7H-pyrrolo[2,3-d]pyrimidin-4-yl)-1H-pyrazol-1-yl]-3-(4-{[6-(trifluoromethyl)pyridin-2-yl]carbonyl}piperazin-1-yl)cyclobutyl}acetonitrile], the IC50 in experiment [1] (Table A, read-out: JAK1 IC50) was below 10 nM; in experiment [2] (Table A, read-out: JAK2 IC50) it was 25 to 100 nM.

On to `CN(C)Cc1cc(C(=O)N2CCN([C@H]3C[C@](CC#N)(n4cc(-c5ncnc6[nH]ccc56)cn4)C3)CC2)nc(C(F)(F)F)c1` [Example 65, {trans-3-(4-{[4-[(dimethylamino)methyl]-6-(trifluoromethyl)pyridin-2-yl]carbonyl}piperazin-1-yl)-1-[4-(7H-pyrrolo[2,3-d]pyrimidin-4-yl)-1H-pyrazol-1-yl]cyclobutyl}acetonitrile], for which the figures for the IC50 in experiment [1] (Table F) and in experiment [2] (Table F) were below 10 nM and 25 to 100 nM, respectively.

`CCNCc1cc(OC2CCN([C@H]3C[C@](CC#N)(n4cc(-c5ncnc6[nH]ccc56)cn4)C3)CC2)nc(C(F)(F)F)c1` [Example 131, {trans-3-(4-{[4-[(ethylamino)methyl]-6-(trifluoromethyl)pyridin-2-yl]oxy}piperidin-1-yl)-1-[4-(7H-pyrrolo[2,3-d]pyrimidin-4-yl)-1H-pyrazol-1-yl]cyclobutyl}acetonitrile]: the IC50 in experiment [1] (Table F) is below 10 nM; in experiment [2] (Table F), 25 to 100 nM.

As to `CC(C)[C@@H](C)NC(=O)N1CCN([C@H]2C[C@](CC#N)(n3cc(-c4ncnc5[nH]ccc45)cn3)C2)CC1` [Example 93, 4-{trans-3-(cyanomethyl)-3-[4-(7H-pyrrolo[2,3-d]pyrimidin-4-yl)-1H-pyrazol-1-yl]cyclobutyl}-N-[(1R)-1,2-dimethylpropyl]piperazine-1-carboxamide], the half-maximal inhibitory concentration (IC50) in experiment [1] (Table F) was below 10 nM; in experiment [2] (Table F), 25 to 100 nM.

In the case of `CN(C)c1ccc(CN2CCN([C@H]3C[C@@](CC#N)(n4cc(-c5ncnc6[nH]ccc56)cn4)C3)CC2)c(F)c1C#N` [Example 2a, 3-[(4-{cis-3-(cyanomethyl)-3-[4-(7H-pyrrolo[2,3-d]pyrimidin-4-yl)-1H-pyrazol-1-yl]cyclobutyl}piperazin-1-yl)methyl]-6-(dimethylamino)-2-fluorobenzonitrile], the IC50 in experiment [1] (Table A, read-out: JAK1 IC50) is below 10 nM; in experiment [2] (Table A, read-out: JAK2 IC50), 25 to 100 nM.

As to `N#CC[C@]1(n2cc(-c3ncnc4[nH]ccc34)cn2)C[C@H](N2CCN(S(=O)(=O)C3CC3)CC2)C1` [Example 36, {trans-3-[4-(cyclopropylsulfonyl)piperazin-1-yl]-1-[4-(7H-pyrrolo[2,3-d]pyrimidin-4-yl)-1H-pyrazol-1-yl]cyclobutyl}acetonitrile], the IC50 in experiment [1] (Table B, read-out: JAK1 IC50) is below 10 nM; in experiment [2] (Table B, read-out: JAK2 IC50) it was below 10 nM.

Consider `C[C@@H](NC(=O)N1CCN([C@H]2C[C@](CC#N)(n3cc(-c4ncnc5[nH]ccc45)cn3)C2)CC1)C1CC1` [Example 97, 4-{trans-3-(cyanomethyl)-3-[4-(7H-pyrrolo[2,3-d]pyrimidin-4-yl)-1H-pyrazol-1-yl]cyclobutyl}-N-[(1R)-1-cyclopropylethyl]piperazine-1-carboxamide], for which the IC50 in experiment [1] (Table F) was below 10 nM; in experiment [2] (Table F), 25 to 100 nM.

On to `CC(C)(C)NCc1cc(OC2CCN([C@H]3C[C@](CC#N)(n4cc(-c5ncnc6[nH]ccc56)cn4)C3)CC2)nc(C(F)(F)F)c1` [Example 127, {trans-3-(4-{[4-[(tert-butylamino)methyl]-6-(trifluoromethyl)pyridin-2-yl]oxy}piperidin-1-yl)-1-[4-(7H-pyrrolo[2,3-d]pyrimidin-4-yl)-1H-pyrazol-1-yl]cyclobutyl}acetonitrile], for which the half-maximal inhibitory concentration (IC50) was below 10 nM in experiment [1] (Table F) and 25 to 100 nM in experiment [2] (Table F).

Turning to `N#CC[C@]1(n2cc(-c3ncnc4[nH]ccc34)cn2)C[C@@H](N2CCN(Cc3c(F)ccc(F)c3Cl)CC2)C1` [Example 16a, {cis-3-[4-(2-chloro-3,6-difluorobenzyl)piperazin-1-yl]-1-[4-(7H-pyrrolo[2,3-d]pyrimidin-4-yl)-1H-pyrazol-1-yl]cyclobutyl}acetonitrile], the IC50 was below 10 nM in experiment [1] (Table A, read-out: JAK1 IC50) and 10 to 25 nM in experiment [2] (Table A, read-out: JAK2 IC50).

On to `CC(C)(O)c1cc(C(=O)N2CCN([C@H]3C[C@](CC#N)(n4cc(-c5ccnc6[nH]ccc56)cn4)C3)CC2)nc(C(F)(F)F)n1` [Example 78, {trans-3-(4-{[6-(1-hydroxy-1-methylethyl)-2-(trifluoromethyl)pyrimidin-4-yl]carbonyl}piperazin-1-yl)-1-[4-(1H-pyrrolo[2,3-b]pyridin-4-yl)-1H-pyrazol-1-yl]cyclobutyl}acetonitrile], for which the IC50 in experiment [1] (Table F) was below 10 nM; in experiment [2] (Table F), 25 to 100 nM.

As for `C[C@H]1CCCN1Cc1cc(F)cc(OC2CCN(C3CC(CC#N)(n4cc(-c5ncnc6[nH]ccc56)cn4)C3)CC2)c1` (single isomer, unassigned; isomer 2) [Example 41, isomer 2], the IC50 in experiment [1] (read-out: JAK1 IC50 (nM) at 1 mM, Table E) is below 10 nM; in experiment [2] (Table E, listed as 41, isomer 2, read-out: JAK2 IC50 (nM) +), below 10 nM.

`N#CC[C@]1(n2cc(-c3ncnc4[nH]ccc34)cn2)C[C@H](N2CCN(C(=O)c3cncc(C(F)(F)F)n3)CC2)C1` [Example 14b, [trans-1-[4-(7H-pyrrolo[2,3-d]pyrimidin-4-yl)-1H-pyrazol-1-yl]-3-(4-{[6-(trifluoromethyl)pyrazin-2-yl]carbonyl}piperazin-1-yl)cyclobutyl]acetonitrile]: the IC50 is below 10 nM in experiment [1] (Table B, read-out: JAK1 IC50) and 25 to 100 nM in experiment [2] (Table B, read-out: JAK2 IC50).

With `N#CC[C@]1(n2cc(-c3ncnc4[nH]ccc34)cn2)C[C@H](N2CCN(C(=O)c3ccnc(C(F)(F)F)c3F)CC2)C1` [Example 6b, {trans-3-{4-[3-fluoro-2-(trifluoromethyl)isonicotinoyl]piperazin-1-yl}-1-[4-(7H-pyrrolo[2,3-d]pyrimidin-4-yl)-1H-pyrazol-1-yl]cyclobutyl}acetonitrile], the IC50 in experiment [1] (Table B, read-out: JAK1 IC50) was below 10 nM; in experiment [2] (Table B, read-out: JAK2 IC50) it was 25 to 100 nM.
